Laboratory results taken from US12029738B2, “Antiproliferative compounds and methods of use thereof” (Celgene Corporation, priority 2017, dated 2024).
“Also recorded” adds a separate entry of the source. Where two headings read alike, the source gives them in different places.

Legend:
THLE-2 = test: Anti-proliferative counter-screen (CellTiter-Glo, 72 h); type: cell-based; conditions: Homo sapiens
NCI-H929 [1] = test: PBMC and MM cell treatment assay (single culture vs co-culture); type: cell-based, human; conditions: for IC50: Homo sapiens, NCI-H929, NCI-H929, read-out: Immune-mediated Cell Killing IC50
Method: (§1) PBMC and MM Cell Treatment Assay Procedure. Ninety-six-well dishes were pre-coated with anti-CD3 antibody (OKT3, 3 μg/mL) and incubated at 4° C. overnight before the start of the experiment. Frozen PBMC donor cells were thawed at 37° C. for 2 minutes in RPMI medium with 10% FBS and cell counts and viability were measured on the Vi-CELL analyzer. Peripheral blood mononuclear cells were washed and diluted to 1×10^6 cells/mL and dispensed into the compound-treated plates in a total volume of 200 μL. Cells were incubated with compounds for 2 h before being transferred onto anti-CD3-coated plates and incubated for an additional 72 h. At the same time, MM cell lines (NCI-H929, H929-1051, OPM2, OPM2-P10) were diluted to a final concentration of 0.1×10^6 cells/mL and labeled with CellTrace CFSE according to manufacturer's instructions. Multiple myeloma cell lines were then dispensed into compound-treated plates at a total volume of 200 μL and incubated for 72 h. After 72 h, the PBMCs and MM cells were counted and transferred into a U-bottom 96-well plate at a final T:E ratio of 1:5. After 24 h coculture, specific target cell lysis by PBMC cells was measured using Annexin V-AF647 and 7-AAD according to manufacturer's instructions and samples were run on the Attune NxT Cytometer.
(§2) Because preincubation of immune cells with Compound 2 enhanced the targeting and lysing of MM cells, the effect of preincubation of MM cells with Compound 2 on their susceptibility to immune-mediated killing was also explored (FIG. 16A, FIG. 16B, FIG. 16C, and FIG. 16D, Table 12). Four MM cell lines and anti-CD3 antibody-activated PBMCs were separately preincubated with Compound 2, lenalidomide, or pomalidomide for 72 h. When anti-CD3 antibody-activated PBMCs and MM lines were both pretreated with Compound 2, lenalidomide, or pomalidomide, followed by co-culture, the effects on the PBMC-induced MM cell lysis were enhanced both in the potency and magnitude of the killing response. […] For the pomalidomide-resistant OPM2-P10 cell line, Compound 2 treatment of the MM cells enhanced the immune-mediated killing by ˜3000-fold (Table 12).

H929-1051 [2] = test: as above; type: cell-based, human; conditions: for IC50: Homo sapiens, PBMC, read-out: Immune-mediated Cell Killing IC50
Method: as §1, §2

OPM2-P10 = test: as above; type: cell-based, human; conditions: for IC50: Homo sapiens, PBMC, read-out: Immune-mediated Cell Killing IC50
Method: as §1, §2

[3] = tested on: multiple myeloma and plasma cell leukemia cell lines (OPM2.P10, RPMI.8226, L363, JJN-3); test: Combination with proteasome inhibitor pulse (flow cytometry, 72 h); type: cell-based, human; conditions: then Compound 2 72 h
Method: Twenty four hours prior to treatment with a proteasome inhibitor and test compound, an appropriate number of cells were split to a concentration of 0.2×10^6/mL in fresh media to allow for exponential growth. On the day of treatment, compounds were freshly solvated in DMSO. Proteasome inhibitors bortezomib or carfilzomib were diluted and added to pre-warmed culture media at the final working concentrations of 150 nM or 300 nM for bortezomib and 300 nM or 550 nM for carfilzomib. Proteasome inhibitor concentrations were determined based upon clinical Cmax concentrations as well as previous studies in each cell line which determined the duration and concentration of PI required to inhibit a specific amount of β5 proteasome activity. Cells were counted and an appropriate number were placed into media containing proteasome inhibitor and thoroughly mixed. After incubation for 1 h at 37° C., 5% CO2, cells were washed two times with 40 mL of complete media to remove the proteasome inhibitor. […] Plated cells were cultured at 37° C., 5% C02, for the remainder of the experiment, up to 72 h. Every 24 h, proteasome inhibition was monitored by the Cell-Based Proteasome-Glo Assay. Proliferation and apoptosis were measured at 72 h by flow cytometry. Cells were stained with APC Annexin-V and 7-AAD to enumerate the number of viable cells remaining in culture.
An in vitro cell assay was established in order to mimic the clinical pharmacokinetics (PK) and pharmacodynamics (PD) of exposure to proteasome inhibitors bortezomib and carfilzomib.

[4] = tested on: CD38 expression in MM cell lines; test: Cell surface CD38 expression in MM cells (72 h pretreatment); type: cell-based, human; conditions: 72 h treatment
Method: FIG. 17. Compound 2 upregulates CD38 expression in MM cell lines. The cell surface expression of CD38 was evaluated in MM cells pretreated with Compound 2 or pomalidomide for 72 h. The dose response effects are shown for OPM-2 and OPM-2.P10 cell lines.
The extent of CD38 expression was greater with Compound 2 and occurred at lower concentrations compared to pomalidomide. MM cells+/−Compound 2 or pomalidomide pretreatment were evaluated in ADCC assays with daratumumab. […] Compound 2 treated cells were also more sensitive to daratumumab-mediated ADCC compared to pomalidomide treated cells. The ability of Compound 2 and pomalidomide to modulate daratumumab-mediated ADCP was also tested.

NCI-H929 [5] = test: Coculture of compound-treated anti-CD3-activated PBMCs with untreated myeloma cells; type: cell-based; conditions: Homo sapiens, T:E 1:5, 24 h, read-out: IC50 tumor cell lysis by compound-treated PBMCs
Method: (§3) Coculture Assays with Compound-treated Human Peripheral Blood Mononuclear Cells and Untreated Myeloma Cell Lines. Methods: Cell Culture. All myeloma cell lines were kept in log phase, and cell density and viability were monitored by trypan blue exclusion using the Vi-CELL XR cell viability analyzer.
(§4) PBMC Treatment Assay Procedure. Ninety-six-well dishes were pre-coated with anti-CD3 antibody (OKT3, 3 μg/mL) and incubated at 4° C. overnight before the start of the experiment. Frozen PBMC donors, were thawed at 37° C. for 2 minutes in RPMI medium with 10% FBS and cell counts and viability were measured on the Vi-CELL® (Beckman Coulter). Peripheral blood mononuclear cells were washed and diluted to 1×10^6 cells/mL and dispensed to the compound-treated plates in a total volume of 200 μL. Cells were incubated with compounds for 2 h before being transferred onto anti-CD3-coated plates and incubated for an additional 72 h at 37° C. After 72 h, the PBMCs were centrifuged, and cells were washed twice in RPMI medium+10% FBS. […] Peripheral blood mononuclear cells were counted and added to the MM cells at a target:effector (T:E) ratio of 1:5. After 24 h co-culture, specific target cell lysis by PBMCs was measured using Annexin V-AF647 and 7-AAD according to manufacturer's instructions and samples were run on the Attune NxT Cytometer (Thermo Fisher).

H929-1051 [6] = test: as above; type: cell-based; conditions: Homo sapiens, untreated H929-1051, T:E 1:5, 24 h, read-out: IC50 tumor cell lysis by compound-treated PBMCs
Method: as §3, §4

OPM2 = test: PBMC and MM cell treatment assay (single culture vs co-culture); type: cell-based; conditions: Homo sapiens, OPM-2, OPM2, read-out: Immune-mediated Cell Killing IC50
Method: as §1, §2

[7] = tested on: unstimulated primary human PBMCs; test: Anti-proliferative counter-screen (CellTiter-Glo, 72 h); type: cell-based; conditions: PBMC
CYP2E1 = target: T1, CYP2E1 (Homo sapiens, UniProt P05181); test: CYP inhibition in pooled human liver microsomes; type: in vitro ADME; conditions: up to 30 μM
T1 construct: from tissue; host or cells: pooled human liver microsomes
T1 sequence (P05181 whole entry): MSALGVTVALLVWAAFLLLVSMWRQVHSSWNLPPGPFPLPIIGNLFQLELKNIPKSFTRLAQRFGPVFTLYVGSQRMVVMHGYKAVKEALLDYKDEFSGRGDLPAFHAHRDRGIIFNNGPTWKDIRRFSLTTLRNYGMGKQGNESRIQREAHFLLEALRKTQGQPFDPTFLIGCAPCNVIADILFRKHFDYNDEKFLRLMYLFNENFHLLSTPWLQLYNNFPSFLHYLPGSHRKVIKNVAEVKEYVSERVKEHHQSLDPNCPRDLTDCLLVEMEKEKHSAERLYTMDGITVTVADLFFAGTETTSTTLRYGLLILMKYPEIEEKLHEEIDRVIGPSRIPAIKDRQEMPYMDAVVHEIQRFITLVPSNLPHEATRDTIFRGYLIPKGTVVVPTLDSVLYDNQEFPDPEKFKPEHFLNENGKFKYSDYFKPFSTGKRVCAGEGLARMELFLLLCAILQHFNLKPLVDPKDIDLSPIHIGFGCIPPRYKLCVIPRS
Method: Methods. […] In addition, the compounds were evaluated for their potential to act as a time-dependent inhibitors at the same concentrations mentioned above. […] In addition to appropriate vehicle controls, known direct inhibitors and time-dependent inhibitors of CYP isoforms were included as positive controls. Following the incubation, concentrations of probe substrate metabolites were quantified using established LC/MS/MS methods. The extent of inhibition was expressed as the percentage of control activity.

Work on `N#Cc1ccc(N2CCN(Cc3ccc(COc4cccc5c4CN([C@H]4CCC(=O)NC4=O)C5=O)cc3)CC2)c(F)c1` [Compound 2, (S)-4-(4-(4-(((2-(2,6-dioxopiperidin-3-yl)-1-oxoisoindolin-4-yl)oxy)methyl)benzyl)piperazin-1-yl)-3-fluorobenzonitrile] yielded an IC50 (THLE-2) of over 10 µM, an IC50 (NCI-H929 [1]; Co-culture with PBMCs) of 0.087 nM and an IC50 (NCI-H929 [1]; Single culture) of 581 nM. For the same molecule, the “enhancement of killing, co-culture versus single culture IC50” value (NCI-H929 [1]; NCI-H929) was about 7000 fold, the “enhancement of killing, co-culture versus single culture IC50” value (H929-1051 [2]; H929-1051) was about 6000 fold and the IC50 (H929-1051 [2]; H929-1051, Single culture) was 575 nM. The IC50 (H929-1051 [2]) was 0.1 nM, the “enhancement of immune-mediated killing, co-culture versus single culture IC50” value (OPM2-P10) was about 3000 fold and the IC50 (OPM2-P10; Co-culture with PBMCs) was 3.1 nM. The IC50 (OPM2-P10; Single culture) was over 10000 nM, the “effect in combination with bortezomib” value ([3]; 1 h bortezomib pulse, OPM2.P10, RPMI.8226, JJN-3) was “demonstrated a combination effect” and the “effect in combination with carfilzomib” value ([3]; 1 h carfilzomib pulse, 4 cell lines) was “combination effects with Compound 2 were demonstrated in all 4 cell lines”. The “CD38 expression in MM cells” value [4] was “dose-dependent increase of CD38 expression”, the IC50 (NCI-H929 [5]) was 5 nM and the IC50 (H929-1051 [6]) was 0.2 nM. It also gave an IC50 (OPM2; Co-culture with PBMCs) of 0.0936 nM, an IC50 (OPM2; Single culture) of 0.3 nM and an IC50 [7] of over 10 µM.

`O=C1CC[C@H](N2Cc3c(OCc4ccc(CN5CCN(c6ccc(F)cc6F)CC5)cc4)cccc3C2=O)C(=O)N1` [Compound B] was tested, and the “time-dependent inhibition of CYP2E1” value (CYP2E1; 30 minute preincubation with or without NADPH) was “little to no time-dependent inhibition; also recorded: not a time-dependent inhibitor” and the “direct inhibition of CYP2E1” value (CYP2E1; human liver microsomes) was “up to 30%”.

Molecule `Nc1cccc2c1C(=O)N(C1CCC(=O)NC1=O)C2=O` (centres unmarked) [Pomalidomide, pomalidomide] has an IC50 (NCI-H929 [1]; Co-culture with PBMCs) of 44.4 nM, an IC50 (NCI-H929 [1]; Single culture) of over 10000 nM and an IC50 (H929-1051 [2]; H929-1051, Co-culture with PBMCs) of 71.3 nM. The IC50 (H929-1051 [2]; H929-1051, Single culture) was over 10000 nM, the IC50 (OPM2-P10; Co-culture with PBMCs) was 1180 nM and the IC50 (OPM2-P10; Single culture) was over 10000 nM. For the same molecule, the “CD38 expression in MM cells” value [4] was “dose-dependent increase of CD38 expression”, the IC50 (OPM2; Co-culture with PBMCs) was 168 nM and the IC50 (OPM2; Single culture) was 627 nM.
